Data from publication PMC10045593, “Ubiquitin-Specific Proteases as Potential Therapeutic Targets in Bladder Cancer—In Vitro Evaluation of Degrasyn and PR-619 Activity Using Human and Canine Models” (Biomedicines, 2023).
Where “and” joins values, the source holds several entries; their conditions need not be identical. Identical values can stand only once.

Experiments:
[1] = system: K9TCC-PU-NK cell line; assay: MTT cell proliferation assay; type: cell-based, canine; settings: highest concentration used (20 μM)
Procedure: (§1) Cell proliferation was determined using the 3-(4,5-dimethylthiazol-2-yl)-2,5-diphenyltetrazolium bromide (MTT) assay (Sigma-Aldrich, Steinheim, Germany). Cells were plated at a density of 1 × 10^5 cells per mL in 96-well plates (Thermo Fisher Scientific, Roskilde, Denmark) and allowed to attach overnight. Subsequently, Degrasyn and PR-619 were added in increasing concentrations (0.6, 1.25, 2.5, 5, 10, and 20 μM). After incubation for 24, 48, and 72 h with either the compounds or in the medium alone, 20 μL of MTT solution (5 mg/mL) was added to each well. After an additional 4 h, 80 μL of the lysis buffer (225 mL DMF, 67.5 g SDS, and 275 mL distilled water) was added to each well. After dissolving the content, the absorbance was measured at a […] of 570 nm using a spectrophotometric microplate reader Spark (Tecan). The values were obtained from 3 independent experiments (different plates, different days). Based on the results, the concentration that inhibited 50% of the cell proliferation (IC50) was calculated for all incubation intervals.

[2] = system: RDSVS-TCC1 cell line; assay: MTT cell proliferation assay; type: cell-based, canine; settings: highest concentration used (20 μM)
Procedure: as §1

[3] = system: SV-HUC-1 cell line; assay: Annexin V-FITC/PI apoptosis flow cytometry; type: cell-based, human; settings: SV-HUC-1, 24 h; for pro-apoptotic effect (number of apoptotic cells vs control): increasing concentrations up to approximately IC50
Procedure: (§2) To assess the level of apoptosis induced by Degrasyn and PR-619, cells were seeded at a density of 1 × 10^5/mL in 96-well plates (TPP, Trasadingen, Switzerland) and incubated for 24 h with increasing concentrations of compounds. Cells were then collected, suspended in a binding buffer, and stained with Annexin V-FITC for 10 min at room temperature. Subsequently, PI was added, and flow cytometric analysis was immediately performed using a flow cytometers (FACS Calibur, Becton Dickinson, Biosciences, San Jose, CA, USA; CytoFlex, Beckman Coulter, CA, USA). CellQuest 3.lf. (Becton Dickinson, San Jose, CA, USA) and CytExpert 2.4 (Beckman Coulter, CA, USA) software were used for data analysis.

[4] = system: T24 cell line; assay: Annexin V-FITC/PI apoptosis flow cytometry; type: cell-based, human; settings: T24, 24 h; for pro-apoptotic effect (number of apoptotic cells vs control): increasing concentrations up to approximately IC50
Procedure: as §2

[5] = system: K9TCC-PU-NK cell line; assay: Annexin V-FITC/PI apoptosis flow cytometry; type: cell-based, canine; settings: 24 h
Procedure: as §2

[6] = system: RDSVS-TCC1 cell line; assay: Annexin V-FITC/PI apoptosis flow cytometry; type: cell-based, canine; settings: RDSVS-TCC1, 24 h; for pro-apoptotic effect (number of apoptotic cells vs control): increasing concentrations up to approximately IC50
Procedure: as §2

[7] = system: SV-HUC-1 cell line; assay: Caspase 3/7 activation flow cytometry assay; type: cell-based, human; settings: SV-HUC-1, 24 h
Procedure: (§3) Subsequently, to assess caspases 3/7 activation, the cells were incubated with medium alone or with increasing concentrations of compounds (Degrasyn, PR-619) in conditions similar to the previous test. Following cell collection, the cells were twice PBS-washed and stained in accordance with the manufacturer’s instructions. For active caspase 3/7 detection, CellEventCaspase-3/7 Green Detection Reagent Solution was added to the samples. The cells were then suspended 1 more time in the wash buffer after being washed twice. For flow cytometric analysis, a flow cytometers (FACS Calibur, Becton Dickinson, Biosciences, San Jose, CA, USA; CytoFlex, Beckman Coulter, CA, USA) were used, and CellQuest 3.lf (Becton Dickinson, San Jose, CA, USA) and CytExpert 2.4 (Beckman Coulter, CA, USA) software were used for data analysis. The presented results were obtained from three independent experiments.

[8] = system: T24 cell line; assay: Caspase 3/7 activation flow cytometry assay; type: cell-based, human; settings: T24, 24 h
Procedure: as §3

[9] = system: USP5 protein in T24 cells; assay: Western blot for USP5 expression; type: cell-based, human; settings: T24, 24 h; Degrasyn 0.6, 1.25, 2.5 μM; PR-619 1.25, 2.5, 5 μM
Procedure: (§4) Western blot was performed to assess the expression of USP5, USP9X, and USP14 in analyzed cell lines. After 24 h of incubation with increasing concentrations of Degrasyn and PR-619, the expression of proteins involved in apoptosis (Bcl-2 and Bcl-xl) and a marker of DNA damage (γH2A.X) was also evaluated. Briefly, cells were rinsed with cold phosphate-buffered saline (PBS), suspended in lysis buffer (50 mM Tris-HCl pH 7.5, 100 mM NaCl, 1% NP-40, protease inhibitors set), and incubated for 20 min on ice. Subsequently, after centrifuging at 10,000 rpm at 4 °C for 12 min, sodium dodecyl sulfate (SDS) sample buffer was added to […]. After boiling for 5 min at 95 °C, the samples were subjected to SDS-polyacrylamide gel electrophoresis on 8–15% gel. For USP5, USP9X, USP14, γH2A.X, Bcl-2, and Bcl-xl expression analysis, transfers onto nitrocellulose membranes were performed using a Semidry Transfer Cell or wet transfer method (Bio-Rad, Hercules, CA, USA). After transfer, the membranes were blocked with 1% casein in TBS (or 3% BSA for γH2Ax) at room temperature for 1 h. […]

[10] = system: γH2AX in T24 cell line; assay: Western blot for γH2AX (DNA damage); type: cell-based, human; settings: T24, 24 h
Procedure: as §4

[11] = system: γH2AX in canine BC cell lines (K9TCC-PU-NK, RDSVS-TCC1); assay: Western blot for γH2AX (DNA damage); type: cell-based; settings: 24 h
Procedure: as §4

[12] = system: Bcl-2 in all BC cell lines (T24, K9TCC-PU-NK, RDSVS-TCC-1); assay: Western blot for Bcl-2 expression; type: cell-based, human and canine; settings: 24 h
Procedure: as §4

[13] = 2.5 μM (highest concentration of Degrasyn)
[14] = 5 μM (highest concentration of PR-619)
[15] = highest concentrations of the drug

Compound	cells killed at the highest concentration [1]	cells killed at the highest concentration [2]	pro-apoptotic effect (number of apoptotic cells vs control) [3]	pro-apoptotic effect (number of apoptotic cells vs control) [4]	pro-apoptotic effect (number of apoptotic cells vs control) [6]	percentage of cells with active caspase 3/7 ([7]; 1.25 μM)	percentage of cells with active caspase 3/7 [7, 13]	percentage of cells with active caspase 3/7 ([8]; 1.25 μM)	percentage of cells with active caspase 3/7 [8, 13]	USP5 protein expression [9]	further results
CCC[C@H](NC(=O)/C(C#N)=C/c1cccc(Br)n1)c1ccccc1 [Degrasyn]	~100%	~100%	significant increase	significant increase	significant increase	7.6%	22.4 ± 5.4% and 22.4%	16.1%	36.6 ± 0.7% and 36.6%	clearly decreased	percentage of early and late apoptotic cells ([3]; 2.5 μM): 24.1 ± 2.8%; percentage of early and late apoptotic cells ([4]; 2.5 μM): 32.2 ± 9.2%; percentage of early and late apoptotic cells ([5]; 2.5 μM): 11.8 ± 3.4%; percentage of early and late apoptotic cells ([6]; 2.5 μM): 42.4 ± 2.3%; percentage of cells with active caspase 3/7 ([7]; 0.6 μM): 5.8%; percentage of cells with active caspase 3/7 ([8]; 0.6 μM): 12.5%; expression of γH2AX ([10]; 2.5 µM and 5 µM): high expression; expression of γH2AX ([11]; only 5 µM): high expression; expression of Bcl-2 protein ([12]; 5 μM): slightly decreased
N#CSc1cc(SC#N)c(N)nc1N [PR-619]	~100%	~100%	did not show a significant pro-apoptotic effect	did not show a significant pro-apoptotic effect	did not show a significant pro-apoptotic effect	8.9%	10.6%	10.2%	13.4%	no visible effect	percentage of early and late apoptotic cells ([3]; 5 μM): 14.8 ± 5.8%; percentage of early and late apoptotic cells ([4]; 5 μM): 9.8 ± 1.5%; percentage of early and late apoptotic cells ([5]; 5 μM): 8.4 ± 0.8%; pro-apoptotic effect (number of apoptotic cells vs control) ([5]; increasing concentrations up to approximately IC50): did not show a significant pro-apoptotic effect; percentage of early and late apoptotic cells ([6]; 5 μM): 17.2 ± 6.5%; percentage of cells with active caspase 3/7 [7, 14]: 19.6 ± 1.8% and 19.6%; percentage of cells with active caspase 3/7 [8, 14]: 16.1 ± 4.9% and 16.1%; amount of γH2AX [10, 15]: only a slight visible increase; amount of γH2AX [11, 15]: only a slight visible increase; expression of Bcl-2 protein ([12]; 10 μM): slightly decreased
